Drawing on ChEMBL document CHEMBL3286359, “Synthesis and SAR of substituted pyrazolo[1,5-a]quinazolines as dual mGlu(2)/mGlu(3) NAMs” (Bioorg Med Chem Lett, 2014), this text covers Activity, IC50 and inhibition for 41 compounds.

Active and inactive are the calls of the source. The rule behind the calls is not given here.

Holding throughout (type): functional, cell-based
Experiment [1] addresses Metabotropic glutamate receptor 3 (Rattus norvegicus) (UniProt P31422). As to the kind of experiment: Positive allosteric modulatory activity at rat mGlu3 receptor transfected in HEK293 cells co-expressing mouse Galpha15 assessed as potentiation of glutamate-dependent calcium signaling at 3 uM by fluorescence plate reader analysis in presence of glutamate at EC20 concentration.

The target of experiment [2] is Metabotropic glutamate receptor 3 (Rattus norvegicus, UniProt P31422). As to the kind of experiment: Inhibition of rat mGlu3 receptor transfected in HEK293 cells coexpressing mouse Galpha15 assessed as decrease in glutamate-induced calcium signaling by fluorescence plate reader analysis in presence of glutamate at EC87 concentration.
Chain of Metabotropic glutamate receptor 3 (P31422 whole entry): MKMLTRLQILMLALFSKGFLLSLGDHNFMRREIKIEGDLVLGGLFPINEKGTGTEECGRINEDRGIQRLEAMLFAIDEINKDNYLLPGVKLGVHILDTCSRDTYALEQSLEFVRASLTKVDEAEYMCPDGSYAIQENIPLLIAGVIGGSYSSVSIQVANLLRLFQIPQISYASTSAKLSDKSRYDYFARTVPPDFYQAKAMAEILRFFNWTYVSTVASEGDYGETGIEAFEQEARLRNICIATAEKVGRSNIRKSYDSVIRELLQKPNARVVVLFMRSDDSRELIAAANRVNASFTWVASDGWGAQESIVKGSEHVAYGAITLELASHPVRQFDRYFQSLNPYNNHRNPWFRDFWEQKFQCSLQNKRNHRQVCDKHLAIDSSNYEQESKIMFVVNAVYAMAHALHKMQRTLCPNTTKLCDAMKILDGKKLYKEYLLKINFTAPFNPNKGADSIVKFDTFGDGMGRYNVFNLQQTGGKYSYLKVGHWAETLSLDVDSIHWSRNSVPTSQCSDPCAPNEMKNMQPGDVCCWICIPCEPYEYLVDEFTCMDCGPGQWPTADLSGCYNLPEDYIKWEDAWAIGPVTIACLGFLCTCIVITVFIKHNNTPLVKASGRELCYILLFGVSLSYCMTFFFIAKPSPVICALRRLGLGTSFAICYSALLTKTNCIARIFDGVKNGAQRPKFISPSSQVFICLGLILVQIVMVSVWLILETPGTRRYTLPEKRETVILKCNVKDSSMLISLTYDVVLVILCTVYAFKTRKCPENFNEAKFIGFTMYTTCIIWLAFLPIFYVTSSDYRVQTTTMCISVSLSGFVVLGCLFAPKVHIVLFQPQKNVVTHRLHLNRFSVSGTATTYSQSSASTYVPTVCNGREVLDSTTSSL
For experiment [3], the target named is Metabotropic glutamate receptor 2 (Rattus norvegicus) (UniProt P31421). As to the kind of experiment: Positive allosteric modulatory activity at rat mGlu2 receptor transfected in HEK293 cells co-expressing mouse Galpha15 assessed as potentiation of glutamate-dependent calcium signaling at 3 uM by fluorescence plate reader analysis in presence of glutamate at EC20 concentration.
Chain of Metabotropic glutamate receptor 2 (Rattus norvegicus) (P31421 19-872 limits assumed): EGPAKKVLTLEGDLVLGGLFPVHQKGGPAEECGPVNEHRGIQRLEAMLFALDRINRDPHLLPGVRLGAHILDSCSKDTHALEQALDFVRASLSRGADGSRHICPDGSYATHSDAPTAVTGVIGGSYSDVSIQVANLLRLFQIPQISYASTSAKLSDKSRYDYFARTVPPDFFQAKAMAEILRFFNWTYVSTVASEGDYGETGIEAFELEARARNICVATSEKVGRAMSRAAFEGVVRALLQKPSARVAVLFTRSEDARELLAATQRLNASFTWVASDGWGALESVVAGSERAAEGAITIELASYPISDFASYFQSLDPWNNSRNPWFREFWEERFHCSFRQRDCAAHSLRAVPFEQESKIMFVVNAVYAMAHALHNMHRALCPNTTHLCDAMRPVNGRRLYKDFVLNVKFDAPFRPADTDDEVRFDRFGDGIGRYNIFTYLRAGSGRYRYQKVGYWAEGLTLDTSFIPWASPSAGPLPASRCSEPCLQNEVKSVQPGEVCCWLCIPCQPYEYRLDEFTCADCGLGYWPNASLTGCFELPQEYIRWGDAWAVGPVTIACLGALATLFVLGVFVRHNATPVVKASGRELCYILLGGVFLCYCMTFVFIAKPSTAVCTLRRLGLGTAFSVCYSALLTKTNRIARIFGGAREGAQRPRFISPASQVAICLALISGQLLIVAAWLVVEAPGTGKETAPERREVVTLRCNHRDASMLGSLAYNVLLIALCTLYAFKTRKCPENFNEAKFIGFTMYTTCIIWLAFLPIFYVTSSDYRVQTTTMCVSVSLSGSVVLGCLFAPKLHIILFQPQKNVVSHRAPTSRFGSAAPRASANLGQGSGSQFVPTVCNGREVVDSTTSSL

The target of experiment [4] is Metabotropic glutamate receptor 2 (Rattus norvegicus, UniProt P31421). As to the kind of experiment: Inhibition of rat mGlu2 receptor transfected in HEK293 cells coexpressing mouse Galpha15 assessed as decrease in glutamate-induced calcium signaling by fluorescence plate reader analysis in presence of glutamate at EC76 concentration.
Chain of Metabotropic glutamate receptor 2 (P31421 whole entry): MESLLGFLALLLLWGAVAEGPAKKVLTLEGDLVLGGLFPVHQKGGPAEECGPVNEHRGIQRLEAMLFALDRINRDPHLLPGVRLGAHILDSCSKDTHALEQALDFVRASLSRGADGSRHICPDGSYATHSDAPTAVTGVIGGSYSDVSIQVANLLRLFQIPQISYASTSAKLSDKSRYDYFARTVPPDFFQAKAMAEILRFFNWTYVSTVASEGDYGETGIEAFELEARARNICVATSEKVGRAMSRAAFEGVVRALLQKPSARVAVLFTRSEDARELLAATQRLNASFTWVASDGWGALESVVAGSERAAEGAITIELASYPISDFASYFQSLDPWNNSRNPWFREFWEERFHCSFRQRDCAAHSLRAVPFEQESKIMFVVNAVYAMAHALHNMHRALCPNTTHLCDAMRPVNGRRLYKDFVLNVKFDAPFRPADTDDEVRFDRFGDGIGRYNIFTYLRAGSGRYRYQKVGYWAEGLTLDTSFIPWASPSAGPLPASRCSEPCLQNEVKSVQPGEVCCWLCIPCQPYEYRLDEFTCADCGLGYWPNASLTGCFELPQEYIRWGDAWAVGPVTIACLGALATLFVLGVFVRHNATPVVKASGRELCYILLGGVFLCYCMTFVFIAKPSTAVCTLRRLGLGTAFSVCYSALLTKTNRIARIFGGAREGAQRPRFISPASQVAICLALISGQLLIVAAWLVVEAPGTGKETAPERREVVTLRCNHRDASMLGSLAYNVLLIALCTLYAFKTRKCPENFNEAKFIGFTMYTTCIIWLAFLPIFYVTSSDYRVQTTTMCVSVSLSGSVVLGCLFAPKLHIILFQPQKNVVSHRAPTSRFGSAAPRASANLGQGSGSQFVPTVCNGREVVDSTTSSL
For experiment [5], the target named is Metabotropic glutamate receptor 3 (Rattus norvegicus) (UniProt P31422). As to the kind of experiment: Inhibition of rat mGlu3 receptor transfected in HEK293 cells coexpressing mouse Galpha15 assessed as decrease in glutamate-induced calcium signaling at 3 uM by fluorescence plate reader analysis in presence of glutamate at EC87 concentration.
Chain of Metabotropic glutamate receptor 3 (Rattus norvegicus) (P31422 23-879 limits assumed): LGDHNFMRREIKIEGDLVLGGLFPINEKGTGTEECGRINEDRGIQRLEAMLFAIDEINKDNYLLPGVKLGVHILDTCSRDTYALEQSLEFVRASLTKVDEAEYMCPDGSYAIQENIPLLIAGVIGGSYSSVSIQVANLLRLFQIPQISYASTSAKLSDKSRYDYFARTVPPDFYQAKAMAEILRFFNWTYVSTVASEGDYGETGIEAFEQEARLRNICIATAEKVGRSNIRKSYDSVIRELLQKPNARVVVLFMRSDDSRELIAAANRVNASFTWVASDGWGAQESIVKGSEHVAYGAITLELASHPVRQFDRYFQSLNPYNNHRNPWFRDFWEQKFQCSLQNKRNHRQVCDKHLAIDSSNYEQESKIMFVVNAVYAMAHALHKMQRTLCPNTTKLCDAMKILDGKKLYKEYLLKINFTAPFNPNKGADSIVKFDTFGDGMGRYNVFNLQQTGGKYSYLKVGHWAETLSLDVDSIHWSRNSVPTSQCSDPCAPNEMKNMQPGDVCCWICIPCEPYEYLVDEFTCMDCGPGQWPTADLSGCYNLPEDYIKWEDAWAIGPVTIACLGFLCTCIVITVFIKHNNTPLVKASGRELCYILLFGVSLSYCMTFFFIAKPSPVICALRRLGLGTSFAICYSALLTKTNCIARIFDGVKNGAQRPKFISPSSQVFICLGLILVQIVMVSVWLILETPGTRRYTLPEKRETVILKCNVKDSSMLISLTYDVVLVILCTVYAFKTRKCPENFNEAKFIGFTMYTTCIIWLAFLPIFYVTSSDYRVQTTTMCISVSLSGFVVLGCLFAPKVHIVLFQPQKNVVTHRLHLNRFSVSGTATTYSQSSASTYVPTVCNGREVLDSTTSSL
Experiment [6] has as its target Metabotropic glutamate receptor 2 (Rattus norvegicus) (UniProt P31421). As to the kind of experiment: Inhibition of rat mGlu2 receptor transfected in HEK293 cells coexpressing mouse Galpha15 assessed as decrease in glutamate-induced calcium signaling at 3 uM by fluorescence plate reader analysis in presence of glutamate at EC76 concentration.

The IC50 is the concentration needed to halve the response being measured. For `COc1ccc(-c2ccc3c(=O)n(C)c4cc(-c5ccc(F)cc5)nn4c3c2)cc1`, the result in experiment [1] and in experiment [3] was inactive. Besides, the IC50 in experiment [2] and in experiment [4] was over 10000 nM each time.
One may read the inhibition as the relative decrease from the control value, in per cent. `O=c1[nH]c2cc(-c3ccccc3)nn2c2cc(-c3ccccc3)ccc12`: the inhibition was found to be 6% in experiment [5] and 2% in experiment [6].
For `Cn1c(=O)c2ccc(-c3ccc4nccnc4c3)cc2n2nc(-c3ccccc3)cc12` the same measures were 16% and 0%.
For the compound `O=c1c2ccc(-c3ccccc3)cc2n2nc(-c3ccccc3)cc2n1CCO`, the inhibition in experiment [5] came to 3%; in experiment [6], 0%.
Regarding `Cn1c(=O)c2ccc(-c3cccnc3)cc2n2nc(-c3cccc(Cl)c3)cc12`, the result in experiment [1] and in experiment [3] was inactive. The results for the IC50 in experiment [2] and in experiment [4] were 293 nM and 564 nM, respectively.
In the case of `Cc1cccc(-c2cc3n(C)c(=O)c4ccc(-c5ccccc5)cc4n3n2)c1`, the result in experiment [1] and in experiment [3] was inactive. For the same compound, the inhibition in experiment [5] turned out to be 49%; in experiment [6] it was 7%.
Turning to `Cn1c(=O)c2ccc(-c3cccc(S(N)(=O)=O)c3)cc2n2nc(-c3cccc(F)c3)cc12`, the outcome in experiment [1] and in experiment [3] was inactive. The IC50 in experiment [2] and in experiment [4] was over 10000 nM throughout.
Turning to `Cn1c(=O)c2ccc(-c3ccccc3)cc2n2nc(-c3cccc(Br)c3)cc12`, the outcome in experiment [1] and in experiment [3] was inactive. Further, the inhibition in experiment [5] was 28%; in experiment [6] it was 8%.
With `COc1ccc(-c2ccc3c(=O)n(C)c4cc(-c5cccc(OC)c5)nn4c3c2)cc1`, the result in experiment [1] and in experiment [3] was inactive. The inhibition in experiment [5] was found to be 48%; in experiment [6], 6%.
For the compound `Cc1ccc2c(=O)n(C)c3cc(-c4ccccc4)nn3c2c1`, the outcome in experiment [1] and in experiment [3] was inactive. Further, the figures for the inhibition in experiment [5] and in experiment [6] were 59% and 17%, respectively.
Regarding `Cn1c(=O)c2ccc(-c3ccccc3)cc2n2nc(-c3cccc(Cl)c3)cc12`, the outcome in experiment [1] and in experiment [3] was inactive. Moreover, the figures for the inhibition in experiment [5] and in experiment [6] were 19% and 7%, respectively.
Take `Cn1c(=O)c2ccc(-c3ccc4ccncc4c3)cc2n2nc(-c3ccccc3)cc12`: the results for the IC50 in experiment [2] and in experiment [4] were 4510 nM and over 10000 nM, respectively.
Consider `COc1ccc(-c2ccc3c(=O)n(C)c4cc(-c5cccc(Cl)c5)nn4c3c2)cc1`, for which the outcome in experiment [1] and in experiment [3] was inactive. Moreover, the inhibition in experiment [5] was 31%; in experiment [6], 9%.
On to `Cn1c(=O)c2ccc(-c3cnc4ccccc4c3)cc2n2nc(-c3ccccc3)cc12`, for which the inhibition is 33% in experiment [5] and 4% in experiment [6].
For `Cc1ccc2c(=O)n(C)c3cc(-c4cccc(F)c4)nn3c2c1`, the outcome in experiment [1] and in experiment [3] was inactive. In addition, the inhibition in experiment [5] came to 38%; in experiment [6], 16%.
`CC(=O)n1c(=O)c2ccc(-c3cccnc3)cc2n2nc(-c3ccccc3)cc12`: the IC50 in experiment [2] and in experiment [4] was over 10000 nM throughout.
For `Cn1c(=O)c2ccc(-c3cccc(S(N)(=O)=O)c3)cc2n2nc(-c3ccc(F)cc3)cc12`, the result in experiment [1] and in experiment [3] was inactive. Further, the IC50 in experiment [2] was 1990 nM; in experiment [4], 3950 nM.
Regarding `COc1cccc(-c2cc3n(C)c(=O)c4ccc(C)cc4n3n2)c1`, the outcome in experiment [1] and in experiment [3] was inactive. Further, the IC50 in experiment [2] and in experiment [4] was over 10000 nM in each case.
In the case of `Cn1c(=O)c2ccc(-c3ccccc3)cc2n2nc(-c3cccc(F)c3)cc12`, the outcome in experiment [1] and in experiment [3] was inactive. The results for the inhibition in experiment [5] and in experiment [6] were 39% and 2%, respectively.
For the compound `Cn1c(=O)c2ccc(-c3cccnc3)cc2n2nc(-c3cccc(Br)c3)cc12`, the outcome in experiment [1] and in experiment [3] was inactive. Further, the IC50 in experiment [2] and in experiment [4] was over 10000 nM throughout.
Turning to `Cn1c(=O)c2ccc(-c3cccnc3)cc2n2nc(-c3ccccc3)cc12`, the outcome in experiment [1] and in experiment [3] was inactive. For the same compound, the 50% inhibitory concentration (IC50) in experiment [2] came to 165 nM; in experiment [4], 852 nM.
As to `O=c1[nH]c2cc(-c3ccccc3)nn2c2cc(-c3cccnc3)ccc12`, the inhibition came to 8% in experiment [5] and 4% in experiment [6].
With `Cn1c(=O)c2ccc(-c3ccc4cn[nH]c4c3)cc2n2nc(-c3ccccc3)cc12`, the concentration for half-maximal inhibition (IC50) in experiment [2] and in experiment [4] was over 10000 nM in each case.
With `CC(=O)n1c(=O)c2ccc(-c3ccccc3)cc2n2nc(-c3ccccc3)cc12`, the inhibition in experiment [5] was found to be 8%; in experiment [6], 3%.
Take `COc1ccc(-c2ccc3c(=O)n(C)c4cc(-c5cccc(Br)c5)nn4c3c2)cc1`: the outcome in experiment [1] and in experiment [3] was inactive. For the same compound, the inhibition in experiment [5] was 23%; in experiment [6], 4%.
Turning to `Cn1c(=O)c2ccc(-c3cccnc3)cc2n2nc(-c3ccc(F)cc3)cc12`, the outcome in experiment [1] and in experiment [3] was inactive. The IC50 stood at 67 nM in experiment [2] and 427 nM in experiment [4].
Take `Cn1c(=O)c2ccc(-c3cccc(S(N)(=O)=O)c3)cc2n2nc(-c3ccccc3)cc12`: the outcome in experiment [1] and in experiment [3] was inactive. Besides, the IC50 in experiment [2] worked out at 884 nM.
With `Cn1c(=O)c2ccc(-c3ccc4cc[nH]c4c3)cc2n2nc(-c3ccccc3)cc12`, the values for the inhibition in experiment [5] and in experiment [6] were 34% and 9%, respectively.
With `COc1cccc(-c2cc3n(C)c(=O)c4ccc(-c5cccc(S(N)(=O)=O)c5)cc4n3n2)c1`, the outcome in experiment [1] and in experiment [3] was inactive. Also, the results for the IC50 in experiment [2] and in experiment [4] were 696 nM and 1390 nM, respectively.
As to `COc1ccc(-c2ccc3c(=O)n(C)c4cc(-c5cccc(F)c5)nn4c3c2)cc1`, the result in experiment [1] and in experiment [3] was inactive. In addition, the inhibition amounted to 2% in experiment [5] and 6% in experiment [6].
Turning to `O=c1c2ccc(-c3cccnc3)cc2n2nc(-c3ccccc3)cc2n1CCO`, the IC50 in experiment [2] amounted to 3150 nM; in experiment [4] it was 4650 nM.
In the case of `COc1ccc(-c2ccc3c(=O)n(C)c4cc(-c5ccccc5)nn4c3c2)cc1`, the outcome in experiment [1] and in experiment [3] was inactive. Also, in experiment [5], the inhibition stood at 0%.
Regarding `Cn1c(=O)c2ccc(-c3cccnc3)cc2n2nc(-c3cccc(F)c3)cc12`, the result in experiment [1] and in experiment [3] was inactive. For the same compound, the IC50 in experiment [2] worked out at 247 nM; in experiment [4], 1560 nM.
Turning to `Cc1cccc(-c2cc3n(C)c(=O)c4ccc(-c5cccnc5)cc4n3n2)c1`, the outcome in experiment [1] and in experiment [3] was inactive. Besides, the concentration for half-maximal inhibition (IC50) in experiment [2] was 530 nM; in experiment [4], 1790 nM.
As to `Cc1ccc2c(=O)n(C)c3cc(-c4ccc(F)cc4)nn3c2c1`, the outcome in experiment [1] and in experiment [3] was inactive. Further, the IC50 in experiment [2] and in experiment [4] was over 10000 nM in each case.
Take `COc1cccc(-c2cc3n(C)c(=O)c4ccc(-c5cccnc5)cc4n3n2)c1`: the result in experiment [1] and in experiment [3] was inactive. Besides, the IC50 came out at 1180 nM in experiment [2] and 3120 nM in experiment [4].
`Cn1c(=O)c2ccc(-c3ccncc3)cc2n2nc(-c3ccccc3)cc12`: the IC50 is 509 nM in experiment [2] and 1770 nM in experiment [4].
On to `COc1cccc(-c2cc3n(C)c(=O)c4ccc(-c5ccccc5)cc4n3n2)c1`, for which the outcome in experiment [1] and in experiment [3] was inactive. The half-inhibitory concentration (IC50) in experiment [2] and in experiment [4] was over 10000 nM in each case.
In the case of `Cn1c(=O)c2ccc(-c3ccccc3)cc2n2nc(-c3ccccc3)cc12`, the result in experiment [1] and in experiment [3] was inactive. Besides, the half-inhibitory concentration (IC50) in experiment [2] and in experiment [4] was over 10000 nM in each case.
As for `COc1ccc(-c2ccc3c(=O)n(C)c4cc(-c5cccc(C)c5)nn4c3c2)cc1`, the result in experiment [1] and in experiment [3] was inactive. For the same compound, the inhibition is 34% in experiment [5] and 0% in experiment [6].
As for `Cn1c(=O)c2ccc(-c3ccccc3)cc2n2nc(-c3ccc(F)cc3)cc12`, the outcome in experiment [1] and in experiment [3] was inactive. Also, the inhibition in experiment [5] is 64%; in experiment [6], 12%.
